According to patent US6924266B2, “NTP-peptides and method for removal of tumors” (Nymox Corporation, priority 2001, dated 2005):

Tested on: muscle tissue, subcutaneous connective tissue, and dermis
Experiment: Effect on tissue at sites of injection in normal rats, histopathology at 24 hours
Format: in vivo
Conditions: for effect on tissue at sites of injection (histopathology): injected in skin, subcutaneously and in extremity skeletal muscle, in saline, 100 to 400 mL at 0.1-1 mg/mL, sacrificed at 24 hours; for muscle changes at injection sites compared with controls: extremity skeletal muscle injection; for muscle changes at injection sites compared with controls / spread of necrosis / cell death beyond the site of injection: 24 hours; for spread of necrosis / cell death beyond the site of injection: local injection
Description: (§1) Eight normal rats were injected in the skin and subcutaneously, each in four different foci, and in extremity skeletal muscle, each in two different foci, with NTP peptide #43 in saline in quantities of […] at concentrations of 0.1-1 mg/mL delivered from plastic syringes through stainless steel 26 gauge needles.
The 48 individual foci of infiltration were excised, fixed in 10% formalin, embedded in paraffin, and stained and examined by standard histopathological methods.
Similar groups of control rats were injected with (1) bovine serum albumin 0.1% in saline, (2) normal human serum, (3) physiological saline, (4) noninfectious bacterial proteins, and (5) control peptides and purified and then examined and sacrificed as above, with the excised foci of injection treated as above.
as §1, with “#17” for “#43”
The controls were the same as Example 1.
as §1, with “#20” for “#43”
as §1, with “#19” for “#43”
as §1, with “#16” for “#43”
as §1, with “#15” for “#43”
as §1, with “#14” for “#43”

Row | Sequence | effect on tissue at sites of injection (histopathology) | muscle changes at injection sites compared with controls | spread of necrosis / cell death beyond the site of injection
1 | FILFFLRHRCPTL (listed as Homo sapiens) [NTP peptide #19] | cell death and necrosis of tissue at the injection sites |  | 
2 | FILFFLRHRCPTLTQDEVQWCDHSS (listed as Homo sapiens) [NTP peptide #20] | cell death and necrosis of tissue at the injection sites | entire fields of muscle fiber layers were necrotic | did not appear to spread far beyond the site of injection
3 | KCWDYRRAAVPGL (listed as Homo sapiens) [NTP peptide #14] | cell death and necrosis of tissue at the injection sites |  | 
4 | KCWDYRRAAVPGLFILFFL (listed as Homo sapiens) [NTP peptide #15] | cell death and necrosis of tissue at the injection sites |  | 
5 | KCWDYRRAAVPGLFILFFLRHRCP (listed as Homo sapiens) [NTP peptide #16] | cell death and necrosis of tissue at the injection sites |  | 
6 | KCWDYRRAAVPGLFILFFLRHRCPTLTQDEVQWCDHSS (listed as Homo sapiens) [NTP peptide #17] | abundant acute necrosis of tissue at the injection sites | entire fields of muscle fiber layers were necrotic | did not appear to spread far beyond the site of injection
